Test results reported in patent US8906897B2, “Antimicrobial agents based on hemin derivatives” (Obschestvo S Ogranichennoi Otvetstvennostiyu …, priority 2009, dated 2014).

Columns and labels:
[1] = system: Enterococcus faecium No. 569; assay: Specific activity against resistant bacterial strains; assay type: cell-based; details: Ent. faecium 569; 24 h, 36° C.
[2] = system: Staphylococcus aureus No. 25923 ATCC; assay: as above; assay type: cell-based; details: St. aureus 25923; 24 h, 36° C.
Experimental: (§1) The tested agents were water-soluble hemin derivatives (compounds VII and XVIII) or DMSO-soluble derivatives (compounds VIII, XV, and XIV). Vancomycin was the reference compound. Each compound was tested in three replicas.
(§2) Sterile single-use flat-bottomed 96-well plates, Petri dishes, pipettes, tips, and test tubes (Pan-Eco, Moscow) were used in the study.
(§3) The nutritional media used were as follows. A working Mueller Hinton broth was prepared from dry media (Mueller Hinton broth, Acumedia, Baltimore) and sterilized by autoclaving at 121° C. for 15 min.
(§4) Staphylococcus aureus was cultured on the Tripticase Soy Agar (BBL) commercially available dry medium. Enterococcus faecalis was cultured on the Columbia Agar Base (BBL) commercially available dry medium. These media were sterilized by autoclaving at 121° C. for 15 min.
(§5) Bacterial inoculum was fixed and equal to 5×10^5 CFU/mL.
(§6) For water-soluble compounds, wells from 2nd through 8th were added with the solvent (water) in an amount of 15 μL per well, then the 1st well was added with 30 μL of the stock solution of the tested compound in water with a concentration of 1×10^3M, and the concentration was adjusted to 0.007×10^3 M by serial twofold dilutions. A 10-μL portion was taken from every well, and 190 μL of the bacterial culture (10^5 CFU) was added per well.
(§7) For DMSO-soluble compounds, wells from 2nd through 8th were added with the solvent (DMSO) in an amount of 10 μL per well, then the 1st well was added with 20 μL of the stock solution of the tested compound in […] with a concentration of 5×10^3M, and the concentration was adjusted to 0.039×10^3 M by serial twofold dilutions. A 2-μL portion was taken from each well, and 198 μL of the bacterial culture (10^5 CFU) was added per well.
(§8) The control comprised wells free of tested compounds (culture growth control). In addition, purity control of nutritional media and solvents was used. Plates were incubated in a thermostat at 36° C. for 24 hours.
(§9) Culture growth was evaluated visually by comparison of how microorganisms grew in the presence of tested compounds and in the absence of them. MSC (the minimal suppressing concentration) was set equal to the last dilution of a tested agent which suppressed bacterial culture growth.

[3] = system: Staphylococcus epidermidis No. 533; assay: as above; assay type: cell-based; details: St. epiderm 533; 24 h, 36° C.
Experimental: as §1, §2, §3, §4, §5, §6, §7, §8, §9

[4] = system: Staphylococcus aureus No. 100 KC; assay: as above; assay type: cell-based; details: St. aureus 100 KC; 24 h, 36° C.
Experimental: as §1, §2, §3, §4, §5, §6, §7, §8, §9

[5] = system: Enterococcus faecalis No. 559; assay: as above; assay type: cell-based; details: Ent. faecalis 559; 24 h, 36° C.
Experimental: as §1, §2, §3, §4, §5, §6, §7, §8, §9

human leukocytes = assay: Cytotoxic activity against human leukocytes; details: for toxic effect on human blood leukocytes (in words): concentrations of up to 1 mM, 3 h
Experimental: Total leukocytes were isolated from human blood by unforced sedimentation using freshly collected venous blood from a healthy donor.
Blood (10 mL) added with 10 units/mL heparin was exposed for 2.5 h in the dark at a temperature of 15 to 18° C. A light-colored liquid supernatant (4 mL) was collected over the layer of sedimenting erythrocytes, washed three times with balanced Hanks's salt solution, and resuspended in the RPMI-1640 medium (added with 8% fetal bovine serum, 2 mM L-glutamine, and 10 mM HEPES; hereinafter, the complete medium).
The concentrations of leukocytes and erythrocytes in the suspension were determined by counts in Goryachev's chamber, after which the suspension was adjusted to a leukocyte concentration of (1.0±0.1)×10^6 cells/mL with the complete medium.
To determine the cytotoxicity of the tested compounds for human leukocytes, the cell suspension was transferred to wells of sterile 96-well plates, tested compounds were added with serial twofold dilutions (the range of tested concentrations was from 3.2 to 100 μM for GrD and gramicidin S; from 8 to 500 μM for compound XIII; and from 8 to 1000 μM for compounds V, VI, VII, VIII, IX, X, XI, XIV, XV, XIX, and Hem), and the mixture was carefully stirred. The experiment was performed in two replicas.
As controls served cells added with an equivalent amount of the solvent in which tested compounds were prepared, namely: water for compounds VII and X; an aqueous solution of DMSO for compounds V, VI, VIII, and IX; and DMSO for GrD, gramicidin S, Hem, XI, XIII, XIV, XV, and XIX. An additional control was an additive-free leukocyte suspension.
Cells were incubated with tested compounds for 3 h (37° C., 5% CO2, 100% humidity). Leukocyte death values were quantified using fluorescence microscopy. Staining with propidium iodide (it permeates only into dead cells nuclei) and Hoechst 33342 (it stains all nuclei) was used to recognize dead and living cells. Cells were incubated for 15 min in plates with propidium iodide and Hoechst 33342 (37° C., 5% CO2), and then the plates were placed under a microscope for analysis.
The dead cell fraction was derived from the fluorescence images of cells obtained in the blue (Hoechst 33342) and red (propidium iodide) spectral ranges using an Axio Observer (Zeiss, Germany) fluorescence microscope equipped with a 10× objective lens (Plan-Neofluar 10×/0.3). The following sets of fluorescence filters were used. For propidium iodide: a 530/585-nm bandpass excitation filter, a 600-nm cut-off dichroic minor, and a 615-nm longpass barrier filter for analysis. For Hoechst 33342: a 359/372-nm bandpass excitation filter, a 395-nm cut-off dichroic mirror, and a 397-nm longpass barrier filter for analysis.
A digital camera recorded three types of cell images: (a) an image in the transmitted white light; (b) a blue fluorescence image obtained with UV excitation, and (c) a red fluorescence image obtained with green light excitation. At least four fields of view were photographed per well in various regions of a well.

SMILES | MICs for hemin derivatives against Gr+ strains [1] | MICs for hemin derivatives against Gr+ strains [2] | MICs for hemin derivatives against Gr+ strains [3] [µM] | MICs for hemin derivatives against Gr+ strains [4] [µM] | MICs for hemin derivatives against Gr+ strains [5] [µM] | Death of leukocytes in the presence of 1 mM of compound (human leukocytes; 3 h incubation) [%] | Death of leukocytes in the presence of 1 mM of compound (human leukocytes; 3 h incubation, listed as hemin) [%] | toxic effect on human blood leukocytes (in words) (human leukocytes) | concentration at which a weak toxic effect on leukocytes appears (human leukocytes; 3 h incubation) [mM]
C=CC1=C(C)c2cc3[n-]c(cc4nc(cc5[n-]c(cc1n2)c(C)c5CCC(=O)N[C@@H](CCC(=O)N[C@@H](CCCNC(=N)N)C(=O)OC)C(=O)N[C@@H](CCCNC(=N)N)C(=O)OC)C(CCC(=O)N[C@@H](CCC(=O)N[C@@H](CCCNC(=N)N)C(=O)OC)C(=O)N[C@@H](CCCNC(=N)N)C(=O)OC)=C4C)c(C)c3C=C.[Cl-].[Fe+3] [Compound XVIII, 6,7-bis[bis(N^α-L-Arginyl Methyl Ester)-L-Glutamyl]-Protohemin IX] | 6.25e-06 M | 7.8e-07 M | 0.78 | 1.56 | 0.78 | – | – | – | –
C=CC1=C(C)c2cc3[n-]c(cc4[n-]c(cc5nc(cc1n2)C(C)=C5C=C)c(C)c4CCC(=O)O)c(CCC(=O)O)c3C.[Cl-].[Fe+3] [Hem, hemin] | >1e-05 M | >1e-05 M | >10 | >10 | >10 | 40 ± 2 | 40 | – | –
C=CC1=C(C)c2cc3[n-]c(cc4nc(cc5[n-]c(cc1n2)c(C)c5CCC(=O)N[C@@H](CO)C(=O)OC)C(CCC(=O)N[C@@H](CO)C(=O)OC)=C4C)c(C)c3C=C.[Cl-].[Fe+3] [VIII] | >5.0. ×10^−5 M | 2.6e-06 M | 5.21 | 6.25 | 3.12 | 6.1 ± 0.3 | – | did not cause the death | –
C=CC1=C(C)c2cc3[n-]c(cc4nc(cc5[n-]c(cc1n2)c(C)c5CCC(=O)NCCO)C(CCC(=O)NCCO)=C4C)c(C)c3C=C.[Cl-].[Fe+3] [Compound XIV, Protohemin IX 6,7-bis-N-(2-Hydroxyethyl)amide] | >5e-05 M | 5.21e-06 M | 5.21 | >50 | 6.25 | 17.5 ± 0.7 | – | – | ~1
C=CC1=C(C)c2cc3[n-]c(cc4nc(cc5[n-]c(cc1n2)c(C)c5CCC(=O)N[C@@H](CCCNC(=N)N)C(=O)OC)C(CCC(=O)N[C@@H](CCCNC(=N)N)C(=O)OC)=C4C)c(C)c3C=C.[Cl-].[Fe+3] [VII] | >5e-05 M | 2.5. ×10^−5 M | 25 | 50 | 25 | 8.0 ± 0.8 | – | did not cause the death | –
